Consider eight molecules from patent US10206394B2, “Herbicidal compounds” (Syngenta Participations AG, priority 2014, dated 2019).

Like-named read-outs stand apart in the source and are kept apart here.

Experiment in all cases: Glasshouse assay for herbicidal activity (pre- and post-emergence), percentage phytotoxicity
What all share (format): in vivo

The subject of one experiment is Avena fatua (AVEFA). To be noted: Avena fatua. The essentials: (§1)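 Damage was rated visually as percent phytotoxicity, 100% meaning total kill, 20 days after pre-emergence application (made one day post-sowing) or 15 days after post-emergence application (made about 12 days post-sowing). Plants were grown under 16 h light, 65% humidity, warm species 24/18° C, cool 20/16° C.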

Experiment [1] concerns Echinochloa crus-galli (ECHCG). The conditions noted are these: Echinochloa crus-galli. The essentials:
as §1

In another experiment the test system is Lolium perenne (LOLPE). The conditions noted are these: Lolium perenne. A digest of the protocol:
as §1

For experiment [2], the system named is Alopecurus myosuroides (ALOMY). The conditions noted are these: Alopecurus myosuroides. A digest of the protocol: as §1
The mark [3] stands for this setting: post-emergence, 360 h, POST-emergence, rate 250 g/ha, visual score 15 DAA (100%=total damage, 0%=no damage), read-out: Post-emergence herbicidal activity (percentage phytotoxicity) AVEFA POST.
The mark [4] stands for this setting: pre-emergence, 480 h, PRE-emergence, rate 250 g/ha, visual score 20 DAA (100%=total damage, 0%=no damage), read-out: Pre-emergence herbicidal activity (percentage phytotoxicity) AVEFA PRE.
[5] abbreviates: post-emergence, 360 h, POST-emergence, rate 250 g/ha, visual score 15 DAA (100%=total damage, 0%=no damage), read-out: Post-emergence herbicidal activity (percentage phytotoxicity) ECHCG POST.
The mark [6] stands for this setting: pre-emergence, 480 h, PRE-emergence, rate 250 g/ha, visual score 20 DAA (100%=total damage, 0%=no damage), read-out: Pre-emergence herbicidal activity (percentage phytotoxicity) ECHCG PRE.
The mark [7] stands for this setting: post-emergence, 360 h, POST-emergence, rate 250 g/ha, visual score 15 DAA (100%=total damage, 0%=no damage), read-out: Post-emergence herbicidal activity (percentage phytotoxicity) LOLPE POST.
Setting [8] is: pre-emergence, 480 h, PRE-emergence, rate 250 g/ha, visual score 20 DAA (100%=total damage, 0%=no damage), read-out: Pre-emergence herbicidal activity (percentage phytotoxicity) LOLPE PRE.
Setting [9] is: post-emergence, 360 h, POST-emergence, rate 250 g/ha, visual score 15 DAA (100%=total damage, 0%=no damage), read-out: Post-emergence herbicidal activity (percentage phytotoxicity) ALOMY POST.
[10] abbreviates: pre-emergence, 480 h, PRE-emergence, rate 250 g/ha, visual score 20 DAA (100%=total damage, 0%=no damage), read-out: Pre-emergence herbicidal activity (percentage phytotoxicity) ALOMY PRE.
The mark [11] stands for this setting: post-emergence, 360 h, 250 g/ha, post-emergence, 15 DAA, visual assessment (100%=total damage, 0%=no damage), read-out: Post-emergence herbicidal activity (percentage phytotoxicity) AVEFA POST.
The mark [12] stands for this setting: pre-emergence, 480 h, 250 g/ha, pre-emergence, 20 DAA, visual assessment (100%=total damage, 0%=no damage), read-out: Pre-emergence herbicidal activity (percentage phytotoxicity) AVEFA PRE.
[13] abbreviates: post-emergence, 360 h, 250 g/ha, post-emergence, 15 DAA, visual assessment (100%=total damage, 0%=no damage), read-out: Post-emergence herbicidal activity (percentage phytotoxicity) ECHCG POST.
Setting [14] is: pre-emergence, 480 h, 250 g/ha, pre-emergence, 20 DAA, visual assessment (100%=total damage, 0%=no damage), read-out: Pre-emergence herbicidal activity (percentage phytotoxicity) ECHCG PRE.
The mark [15] stands for this setting: post-emergence, 360 h, 250 g/ha, post-emergence, 15 DAA, visual assessment (100%=total damage, 0%=no damage), read-out: Post-emergence herbicidal activity (percentage phytotoxicity) LOLPE POST.
Where [16] appears, read: pre-emergence, 480 h, 250 g/ha, pre-emergence, 20 DAA, visual assessment (100%=total damage, 0%=no damage), read-out: Pre-emergence herbicidal activity (percentage phytotoxicity) LOLPE PRE.
[17] abbreviates: post-emergence, 360 h, 250 g/ha, post-emergence, 15 DAA, visual assessment (100%=total damage, 0%=no damage), read-out: Post-emergence herbicidal activity (percentage phytotoxicity) ALOMY POST.
Setting [18] is: pre-emergence, 480 h, 250 g/ha, pre-emergence, 20 DAA, visual assessment (100%=total damage, 0%=no damage), read-out: Pre-emergence herbicidal activity (percentage phytotoxicity) ALOMY PRE.

For `COCC(C)NC(=O)CC1CC(=O)C(c2c(C)cc(-n3cc(Cl)cn3)cc2C)C1=O` (stereo not shown) [Compound B309], the pest or weed control at 250 g/ha in the experiment with Avena fatua (AVEFA) (setting [3]) came out at 100%; with Avena fatua (AVEFA) (setting [4]), 80%; in experiment [1] (setting [5]), 100%; in experiment [1] (setting [6]) it was 100%; in the experiment with Lolium perenne (LOLPE) (setting [7]), 60%; with Lolium perenne (LOLPE) (setting [8]) it was 80%. Besides, the results for the pest or weed control at 250 g/ha in experiment [2] (setting [9]) and in experiment [2] (setting [10]) were 100% and 90%, respectively.

Take `Cc1cc(C)c(C2CC(=O)C(CC(=O)NC(C)CC(C)C)C2=O)c(C)c1` (stereo not shown) [Compound B25]: the pest or weed control at 250 g/ha in the experiment on Avena fatua (AVEFA) (setting [11]) is 80%; in the experiment on Avena fatua (AVEFA) (setting [12]), 70%; in experiment [1] (setting [13]), 90%; in experiment [1] (setting [14]) it was 90%; in the experiment with Lolium perenne (LOLPE) (setting [15]), 80%; with Lolium perenne (LOLPE) (setting [16]), 90%. Also, the pest or weed control at 250 g/ha came out at 80% in experiment [2] (setting [17]) and 90% in experiment [2] (setting [18]).

`Cc1cc(-c2ncc(F)cc2F)cc(C)c1C1C(=O)CC(CC(=O)NCc2ccc(C#N)cn2)C1=O` (stereo not shown) [Compound B202]: the pest or weed control at 250 g/ha with Avena fatua (AVEFA) (setting [3]) worked out at 80%; in the experiment with Avena fatua (AVEFA) (setting [4]) it was 70%; in experiment [1] (setting [5]), 90%; in experiment [1] (setting [6]), 70%; with Lolium perenne (LOLPE) (setting [7]) it was 70%; with Lolium perenne (LOLPE) (setting [8]), 60%. Besides, the pest or weed control at 250 g/ha in experiment [2] (setting [9]) came out at 90%; in experiment [2] (setting [10]) it was 80%.

With `C=C(C)CNC(=O)CC1CC(=O)C(c2c(C)cc(-c3ncc(Cl)cn3)cc2C)C1=O` (stereo not shown) [Compound B341], the pest or weed control at 250 g/ha stood at 100% in the experiment on Avena fatua (AVEFA) (post-emergence, 360 h, Rate 250 g/ha, post-emergence, visual assessment 15 DAA, 100%=total damage, 0%=no damage, read-out: Post-emergence herbicidal activity (percentage phytotoxicity) AVEFA POST); 80% in the experiment on Avena fatua (AVEFA) (pre-emergence, 480 h, Rate 250 g/ha, pre-emergence, visual assessment 20 DAA, 100%=total damage, 0%=no damage, read-out: Pre-emergence herbicidal activity (percentage phytotoxicity) AVEFA PRE); 100% in experiment [1] (post-emergence, 360 h, Rate 250 g/ha, post-emergence, visual assessment 15 DAA, 100%=total damage, 0%=no damage, read-out: Post-emergence herbicidal activity (percentage phytotoxicity) ECHCG POST); 100% in experiment [1] (pre-emergence, 480 h, Rate 250 g/ha, pre-emergence, visual assessment 20 DAA, 100%=total damage, 0%=no damage, read-out: Pre-emergence herbicidal activity (percentage phytotoxicity) ECHCG PRE); 100% in the experiment on Lolium perenne (LOLPE) (post-emergence, 360 h, Rate 250 g/ha, post-emergence, visual assessment 15 DAA, 100%=total damage, 0%=no damage, read-out: Post-emergence herbicidal activity (percentage phytotoxicity) LOLPE POST); 80% in the experiment on Lolium perenne (LOLPE) (pre-emergence, 480 h, Rate 250 g/ha, pre-emergence, visual assessment 20 DAA, 100%=total damage, 0%=no damage, read-out: Pre-emergence herbicidal activity (percentage phytotoxicity) LOLPE PRE). The pest or weed control at 250 g/ha was determined as 100% in experiment [2] (post-emergence, 360 h, Rate 250 g/ha, post-emergence, visual assessment 15 DAA, 100%=total damage, 0%=no damage, read-out: Post-emergence herbicidal activity (percentage phytotoxicity) ALOMY POST) and 100% in experiment [2] (pre-emergence, 480 h, Rate 250 g/ha, pre-emergence, visual assessment 20 DAA, 100%=total damage, 0%=no damage, read-out: Pre-emergence herbicidal activity (percentage phytotoxicity) ALOMY PRE).

`COCCOCCCNC(=O)CC1CC(=O)C(c2c(C)cc(C)cc2C)C1=O` (stereo not shown) [Compound A179]: the pest or weed control at 250 g/ha came to 100% with Avena fatua (AVEFA) (post-emergence, 360 h, post-emergence, 250 g/ha, 15 DAA, visual score (100%=total damage; 0%=no damage), read-out: AVEFA POST herbicidal activity (percentage phytotoxicity)); 90% in the experiment on Avena fatua (AVEFA) (pre-emergence, 480 h, pre-emergence, 250 g/ha, 20 DAA, visual score (100%=total damage; 0%=no damage), read-out: AVEFA PRE herbicidal activity (percentage phytotoxicity)); 100% in experiment [1] (post-emergence, 360 h, post-emergence, 250 g/ha, 15 DAA, visual score (100%=total damage; 0%=no damage), read-out: ECHCG POST herbicidal activity (percentage phytotoxicity)); 80% in experiment [1] (pre-emergence, 480 h, pre-emergence, 250 g/ha, 20 DAA, visual score (100%=total damage; 0%=no damage), read-out: ECHCG PRE herbicidal activity (percentage phytotoxicity)); 80% in the experiment with Lolium perenne (LOLPE) (post-emergence, 360 h, post-emergence, 250 g/ha, 15 DAA, visual score (100%=total damage; 0%=no damage), read-out: LOLPE POST herbicidal activity (percentage phytotoxicity)); 90% in the experiment with Lolium perenne (LOLPE) (pre-emergence, 480 h, pre-emergence, 250 g/ha, 20 DAA, visual score (100%=total damage; 0%=no damage), read-out: LOLPE PRE herbicidal activity (percentage phytotoxicity)). The pest or weed control at 250 g/ha in experiment [2] (post-emergence, 360 h, post-emergence, 250 g/ha, 15 DAA, visual score (100%=total damage; 0%=no damage), read-out: ALOMY POST herbicidal activity (percentage phytotoxicity)) turned out to be 100%; in experiment [2] (pre-emergence, 480 h, pre-emergence, 250 g/ha, 20 DAA, visual score (100%=total damage; 0%=no damage), read-out: ALOMY PRE herbicidal activity (percentage phytotoxicity)), 100%.

Take `CCc1cc(-n2cc(Cl)cn2)cc(C)c1C1C(=O)CC(CC(=O)N(C)C(C)(C)C)C1=O` (stereo not shown) [Compound B239]: the pest or weed control at 250 g/ha in the experiment on Avena fatua (AVEFA) (setting [3]) is 100%; in the experiment with Avena fatua (AVEFA) (setting [4]), 90%; in experiment [1] (setting [5]), 100%; in experiment [1] (setting [6]), 100%; with Lolium perenne (LOLPE) (setting [7]), 100%; with Lolium perenne (LOLPE) (setting [8]), 100%. In addition, the pest or weed control at 250 g/ha in experiment [2] (setting [9]) was determined as 90%; in experiment [2] (setting [10]) it was 100%.

Consider `C=CCNC(=O)CC1CC(=O)C(c2c(C)cc(-c3ncc(F)cn3)cc2C)C1=O` (stereo not shown) [Compound B108], for which the pest or weed control at 250 g/ha with Avena fatua (AVEFA) (setting [11]) was 100%; in the experiment with Avena fatua (AVEFA) (setting [12]), 90%; in experiment [1] (setting [13]), 100%; in experiment [1] (setting [14]), 100%; in the experiment with Lolium perenne (LOLPE) (setting [15]), 100%; with Lolium perenne (LOLPE) (setting [16]), 90%. In addition, the pest or weed control at 250 g/ha in experiment [2] (setting [17]) and in experiment [2] (setting [18]) was 100% in each case.

As for `COCC(C)NC(=O)CC1CC(=O)C(c2c(C)cc(-c3ncc(Cl)cc3F)cc2C)C1=O` (stereo not shown) [Compound B121], the pest or weed control at 250 g/ha worked out at 100% in the experiment with Avena fatua (AVEFA) (setting [11]); 90% in the experiment on Avena fatua (AVEFA) (setting [12]); 100% in experiment [1] (setting [13]); 100% in experiment [1] (setting [14]); 100% in the experiment on Lolium perenne (LOLPE) (setting [15]); 100% with Lolium perenne (LOLPE) (setting [16]). Moreover, the pest or weed control at 250 g/ha in experiment [2] (setting [17]) and in experiment [2] (setting [18]) was 100% in each case.
